Patent publication US20240115881A1, “METHODS AND SYSTEMS FOR DETERMINING THE DISTRIBUTION OF RADIATION DOSE AND RESPONSE” (priority 2022, published 2024)

Experiments:
[1] = test system: Chinese hamster V79 lung fibroblasts; assay: clonogenic survival assay (colony formation) after single-agent treatment; format: cell-based; details: for surviving fraction for drug alone: 0.63 μM daunomycin or 2.50 μM doxorubicin, 2.5 h; for mean lethal concentration: extracellular concentration for 37% survival, 2.5 h exposure
Method: The surviving fraction SF of cells exposed to the agent was assessed with a clonogenic survival assay and plotted as a function of several different variables including extracellular concentration, <I>net, absorbed dose (Gy), and mean cellular activity (mBq/cell). The resulting survival curves were of a 1- or 2-component exponential form. Analogous to the cellular activity and absorbed dose required to achieve 37% survival, a37 and D37, the net mean lethal fluorescence intensity of the drug required to achieve 37% survival, <I>net37 , can be defined similarly and obtained from plots of SF versus <I>net.
To evaluate ^210Po cytotoxicity, the surviving fraction was plotted as a function of EuTc-citrate net MFI, mean cellular uptake of ^210Po, and mean absorbed dose to the nucleus (FIG. 4A). […] The relationships between cell survival and EuTc-citrate net MFI or cellular ^210Po activity can be described by an exponential function SF=exp(−A/A1). The relationship between cell survival and drug net MFI (or extracellular concentration) for daunomycin and doxorubicin are illustrated in FIGS. 4B and 4C, respectively. For both drugs, clonogenic survival and cellular drug uptake (as determined by net MFI) are related via two component exponential functions SF=b exp(−A/A1)+(1-b) exp(−A/A2). A is the intracellular activity of ^210Po-citrate, absorbed dose to the cell nucleus, or drug concentration. Least squares fits of the survival data to this function were performed. The variable b is a fitted parameter.
Chinese hamster V79 lung fibroblasts were used. Two different formulations of minimum essential media (MEMA and MEMB) were used, as known in the literature. All media and supplements were Gibco (Carlsbad, CA), including fetal calf serum (catalog no. 10437, lot no. 539574). For routine maintenance, cells were grown as monolayers in Falcon 25-cm^2 tissue culture flasks (BD, Franklin Lakes, NJ, catalog no. 353082) at 37° C., 5% CO2-95% air, and subcultured twice weekly. For experiments, V79 cells (passage 4-11) were transferred into Falcon 225-cm^2 flasks (BD, catalog no. 353138), and were used upon reaching 80%-90% confluence.
Cells grown in 225-cm^2 flasks were trypsinized (0.25% trypsin, Gibco, catalog no. 25200-056), and MEMB was added to obtain 2×10^6 cells/mL. Aliquots of 1 mL were placed in Falcon 17×100 mm polypropylene tubes (BD, catalog no. 352018) and placed on a rocker-roller (Thermo Fisher, Fair Lawn, NJ) for 3 hours at 37° C. with 5% CO2 and 95% air. After this conditioning period, cells were treated with drug or radiochemical. Cell cultures were exposed to radiochemical and drugs for 0.5 and 2.5 h, respectively.
^210PoCl4 in 2 mol/L HCI was obtained at 370 MBq/mL from Eckert&Ziegler Isotope Products (Valencia, CA, catalog no. 6310). ^210Po-citrate was prepared as follows. Briefly, PoCl4 solution was mixed with 1 mol/L sodium citrate in the ratio of 1:7 (final pH 5.8), and was diluted with MEMB to a volume of 4 mL (final pH 6.9). One milliliter of MEMB containing 210Po-citrate was added to the 1 mL of conditioned V79 cultures (2×10^6 cells/mL), to arrive at a concentration of 0-250 kBq/mL (pH 6.9-7.0). After incubating for 30 min, the cells were washed 2× with MEMB, resuspended in 2 mL of MEMB, and incubated on a rocker-roller for 2.5 h to simulate concomitant drug exposure. The cells were resuspended in a 5 mL of MEMB, passed 5× through a needle, and counted with a Beckman Coulter Model Z2 (Brea, CA). Aliquots (500 μL) of the cell suspension were transferred to vials, mixed with 5 mL Ecolume (MP Biomedical, Solon, OH, catalog no. 882470), and counted with a Beckman Coulter LS6500, and the mean activity per cell was determined (efficiency, 50% as per prior studies). Aliquots of about 5×10^5 cells were counted in triplicate for ^210Po activity and the cpm ranged from 10^3-10^5. The triplicate measurements kept statistical variations to a minimum. […]

V79 cells = assay: clonogenic survival after combined treatment with 210Po-citrate and a chemotherapy drug; format: cell-based, Chinese hamster; details: for effect on radiotoxicity of 210Po-citrate α-particles: 0.63 μM daunomycin or 2.50 μM doxorubicin plus graded 210Po-citrate, corrected for drug toxicity
Method: ^210PoCl4 in 2 mol/L HCI was obtained at 370 MBq/mL from Eckert&Ziegler Isotope Products (Valencia, CA, catalog no. 6310). ^210Po-citrate was prepared as follows. Briefly, PoCl4 solution was mixed with 1 mol/L sodium citrate in the ratio of 1:7 (final pH 5.8), and was diluted with MEMB to a volume of 4 mL (final pH 6.9). One milliliter of MEMB containing 210Po-citrate was added to the 1 mL of conditioned V79 cultures (2×10^6 cells/mL), to arrive at a concentration of 0-250 kBq/mL (pH 6.9-7.0). After incubating for 30 min, the cells were washed 2× with MEMB, resuspended in 2 mL of MEMB, and incubated on a rocker-roller for 2.5 h to simulate concomitant drug exposure. The cells were resuspended in a 5 mL of MEMB, passed 5× through a needle, and counted with a Beckman Coulter Model Z2 (Brea, CA). Aliquots (500 μL) of the cell suspension were transferred to vials, mixed with 5 mL Ecolume (MP Biomedical, Solon, OH, catalog no. 882470), and counted with a Beckman Coulter LS6500, and the mean activity per cell was determined (efficiency, 50% as per prior studies). Aliquots of about 5×10^5 cells were counted in triplicate for ^210Po activity and the cpm ranged from 10^3-10^5. The triplicate measurements kept statistical variations to a minimum. Each sample was serially diluted and plated in Falcon 60×15 mm tissue culture dishes for colony formation. Cultures were incubated for 7 days, and the colonies were fixed in 95% ethanol, stained with 0.01% Amido Black, washed in tap-water, air-dried, and counted.
After conditioning, the cell cultures were treated with daunomycin (Sigma, catalog no. D8809) or doxorubicin (Sigma, catalog no. 44583) to a final concentration of 0-10 μmol/L in MEMB. The tubes were returned to the rocker-roller for 2.5 h. The cells were then processed for colony formation as described above.
To evaluate cytotoxicity of combined treatment of V79 cells with ^210Po-citrate and daunomycin, or ^210Po-citrate and doxorubicin, the surviving fraction of clonogens was plotted as a function of mean cellular uptake of ^210Po (FIG. 9) and as a function of mean absorbed dose to the cell nucleus. When cells were only treated with ^210Po-citrate, the survival curve can be described by a 1-component exponential function. When cells were concomitantly treated with a single drug concentration and varying amounts of ^210Po-citrate, the dose-response curves followed a 2-component exponential function. The data corresponding to the combined treatments were then corrected for drug toxicity, by dividing the surviving fraction for each datum point by the surviving fraction for drug alone (SF=0.10), and replotted in FIG. 9. Both of the corrected cell survival curves emerged below those obtained for ^210Po-citrate alone.

[2] = 0.63 μM daunomycin + 210Po-citrate

| SMILES | surviving fraction for drug alone [1] | mean lethal concentration ([1]; V79 cells) [µmol/L] | effect on radiotoxicity of 210Po-citrate α-particles (V79 cells) | dose dependence of the increased kill (V79 cells; 2.50 μM doxorubicin + 210Po-citrate) | lethality relative to doxorubicin ([1]; low extracellular concentrations, V79 cells) [×] | absorbed dose beyond which the enhancement was independent of dose (V79 cells; [2]) | cellular activity beyond which the enhancement was independent of dose (V79 cells; [2]) [mBq/cell] |
| --- | --- | --- | --- | --- | --- | --- | --- |
| COc1cccc2c1C(=O)c1c(O)c3c(c(O)c1C2=O)C[C@@](O)(C(=O)CO)C[C@@H]3O[C@H]1C[C@H](N)[C@H](O)[C@H](C)O1 [doxorubicin] | 0.10 | 1.26 | enhance the radiotoxicity of α-particles | dose-dependent increase | – | – | – |
| COc1cccc2c1C(=O)c1c(O)c3c(c(O)c1C2=O)C[C@@](O)(C(C)=O)C[C@@H]3O[C@H]1C[C@H](N)[C@H](O)[C@H](C)O1 [daunomycin] | 0.10 | 0.24 | enhance the radiotoxicity of α-particles | – | ~5 | about 0.5 Gy | ~0.09 |
